{"source": "the supplement of paper PMC10307832", "assay_in_all_cases": "relative viability (nuclei count vs DMSO), 5 days (fraction); higher = more cells survive", "key": {"NCI-H1915": {"test_system": "NCI-H1915", "outline": "(§1)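 Five library-drug doses in √10 steps were combined with a fixed anchor-drug dose, or a single drug was given alone, by pin tool to lung cancer cell lines in 1536-well plates the day after seeding. Nuclei were stained and counted after 5 days. Relative viability is the nuclei count in treated wells over that in vehicle wells, taken as the median of duplicate plates.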"}, "NCI-H2228": {"test_system": "NCI-H2228", "outline": "as §1"}, "H3255": {"test_system": "H3255", "outline": "as §1"}, "NCI-H2347": {"test_system": "NCI-H2347", "outline": "as §1"}, "NCI-H441": {"test_system": "NCI-H441", "outline": "as §1"}, "A-427": {"test_system": "A-427", "outline": "as §1"}, "LCLC-97TM1": {"test_system": "LCLC-97TM1", "outline": "as §1"}, "HCC-44": {"test_system": "HCC-44", "outline": "as §1"}, "NCI-H2170": {"test_system": "NCI-H2170", "outline": "as §1"}, "RERF-LC-KJ": {"test_system": "RERF-LC-KJ", "outline": "as §1"}, "HARA": {"test_system": "HARA", "outline": "as §1"}, "PC-14": {"test_system": "PC-14", "outline": "as §1"}, "NCI-H2405": {"test_system": "NCI-H2405", "outline": "as §1"}, "HCC-366": {"test_system": "HCC-366", "outline": "as §1"}, "NCI-H838": {"test_system": "NCI-H838", "outline": "as §1"}, "NCI-H520": {"test_system": "NCI-H520", "outline": "as §1"}, "NCI-H1975": {"test_system": "NCI-H1975", "outline": "as §1"}, "NCI-H1395": {"test_system": "NCI-H1395", "outline": "as §1"}, "NCI-H1993": {"test_system": "NCI-H1993", "outline": "as §1"}, "NCI-H1755": {"test_system": "NCI-H1755", "outline": "as §1"}, "SK-MES-1": {"test_system": "SK-MES-1", "outline": "as §1"}, "LXF-289": {"test_system": "LXF-289", "outline": "as §1"}, "NCI-H3122": {"test_system": "NCI-H3122", "outline": "as §1"}}}
{"smiles": "Oc1nc(-c2ccc(C(F)(F)F)cc2)nc2c1CSCC2", "note": "[XAV939] + CC(=O)c1c(C)c2cnc(Nc3ccc(N4CCNCC4)cn3)nc2n(C2CCCC2)c1=O [Palbociclib] (partner 0.5 µM)", "values": [{"measurement": "relative viability", "setting": "NCI-H1915; first compound 0.08 µM", "result": 0.592}, {"measurement": "relative viability", "setting": "NCI-H1915; first compound 0.253 µM", "result": 0.54}, {"measurement": "relative viability", "setting": "NCI-H1915; first compound 0.8 µM", "result": 0.567}, {"measurement": "relative viability", "setting": "NCI-H1915; first compound 2.53 µM", "result": 0.511}, {"measurement": "relative viability", "setting": "NCI-H2228; first compound 0.08 µM", "result": 0.971}, {"measurement": "relative viability", "setting": "NCI-H2228; first compound 0.253 µM", "result": 0.613}, {"measurement": "relative viability", "setting": "NCI-H2228; first compound 0.8 µM", "result": 0.664}, {"measurement": "relative viability", "setting": "NCI-H2228; first compound 2.53 µM", "result": 0.657}, {"measurement": "relative viability", "setting": "H3255; first compound 0.08 µM", "result": 0.311}, {"measurement": "relative viability", "setting": "H3255; first compound 0.253 µM", "result": 0.317}, {"measurement": "relative viability", "setting": "H3255; first compound 0.8 µM", "result": 0.314}, {"measurement": "relative viability", "setting": "H3255; first compound 2.53 µM", "result": 0.291}, {"measurement": "relative viability", "setting": "NCI-H2347; first compound 0.08 µM", "result": 0.403}, {"measurement": "relative viability", "setting": "NCI-H2347; first compound 0.253 µM", "result": 0.412}, {"measurement": "relative viability", "setting": "NCI-H2347; first compound 0.8 µM", "result": 0.435}, {"measurement": "relative viability", "setting": "NCI-H2347; first compound 2.53 µM", "result": 0.429}, {"measurement": "relative viability", "setting": "NCI-H441; first compound 0.08 µM", "result": 0.222}, {"measurement": "relative viability", "setting": "NCI-H441; first compound 0.253 µM", "result": 0.189}, {"measurement": "relative viability", "setting": "NCI-H441; first compound 0.8 µM", "result": 0.182}, {"measurement": "relative viability", "setting": "NCI-H441; first compound 2.53 µM", "result": 0.189}, {"measurement": "relative viability", "setting": "A-427; first compound 0.08 µM", "result": 0.525}, {"measurement": "relative viability", "setting": "A-427; first compound 0.253 µM", "result": 0.52}, {"measurement": "relative viability", "setting": "A-427; first compound 0.8 µM", "result": 0.502}, {"measurement": "relative viability", "setting": "A-427; first compound 2.53 µM", "result": 0.504}, {"measurement": "relative viability", "setting": "LCLC-97TM1; first compound 0.08 µM", "result": 0.237}, {"measurement": "relative viability", "setting": "LCLC-97TM1; first compound 0.253 µM", "result": 0.204}, {"measurement": "relative viability", "setting": "LCLC-97TM1; first compound 2.53 µM", "result": 0.232}, {"measurement": "relative viability", "setting": "HCC-44; first compound 0.08 µM", "result": 0.899}, {"measurement": "relative viability", "setting": "HCC-44; first compound 0.253 µM", "result": 0.842}, {"measurement": "relative viability", "setting": "HCC-44; first compound 0.8 µM", "result": 0.888}, {"measurement": "relative viability", "setting": "HCC-44; first compound 2.53 µM", "result": 0.807}, {"measurement": "relative viability", "setting": "NCI-H2170; first compound 0.08 µM", "result": 0.41}, {"measurement": "relative viability", "setting": "NCI-H2170; first compound 0.253 µM", "result": 0.263}, {"measurement": "relative viability", "setting": "NCI-H2170; first compound 0.8 µM", "result": 0.436}, {"measurement": "relative viability", "setting": "NCI-H2170; first compound 2.53 µM", "result": 0.322}, {"measurement": "relative viability", "setting": "RERF-LC-KJ; first compound 0.08 µM", "result": 1.13}, {"measurement": "relative viability", "setting": "RERF-LC-KJ; first compound 0.253 µM", "result": 0.828}, {"measurement": "relative viability", "setting": "RERF-LC-KJ; first compound 0.8 µM", "result": 1.02}, {"measurement": "relative viability", "setting": "RERF-LC-KJ; first compound 2.53 µM", "result": 0.761}, {"measurement": "relative viability", "setting": "HARA; first compound 0.08 µM", "result": 0.334}, {"measurement": "relative viability", "setting": "HARA; first compound 0.253 µM", "result": 0.22}, {"measurement": "relative viability", "setting": "HARA; first compound 0.8 µM", "result": 0.234}, {"measurement": "relative viability", "setting": "HARA; first compound 2.53 µM", "result": 0.242}, {"measurement": "relative viability", "setting": "PC-14; first compound 0.08 µM", "result": 0.723}, {"measurement": "relative viability", "setting": "PC-14; first compound 0.253 µM", "result": 0.47}, {"measurement": "relative viability", "setting": "PC-14; first compound 0.8 µM", "result": 0.451}, {"measurement": "relative viability", "setting": "PC-14; first compound 2.53 µM", "result": 0.375}, {"measurement": "relative viability", "setting": "NCI-H2405; first compound 0.08 µM", "result": 0.554}, {"measurement": "relative viability", "setting": "NCI-H2405; first compound 0.253 µM", "result": 0.513}, {"measurement": "relative viability", "setting": "NCI-H2405; first compound 0.8 µM", "result": 0.492}, {"measurement": "relative viability", "setting": "NCI-H2405; first compound 2.53 µM", "result": 0.386}, {"measurement": "relative viability", "setting": "HCC-366; first compound 0.08 µM", "result": 0.444}, {"measurement": "relative viability", "setting": "HCC-366; first compound 0.253 µM", "result": 0.334}, {"measurement": "relative viability", "setting": "HCC-366; first compound 0.8 µM", "result": 0.352}, {"measurement": "relative viability", "setting": "HCC-366; first compound 2.53 µM", "result": 0.261}, {"measurement": "relative viability", "setting": "NCI-H838; first compound 0.08 µM", "result": 0.217}, {"measurement": "relative viability", "setting": "NCI-H838; first compound 0.253 µM", "result": 0.203}, {"measurement": "relative viability", "setting": "NCI-H838; first compound 0.8 µM", "result": 0.179}, {"measurement": "relative viability", "setting": "NCI-H838; first compound 2.53 µM", "result": 0.148}, {"measurement": "relative viability", "setting": "NCI-H520; first compound 0.08 µM", "result": 0.252}, {"measurement": "relative viability", "setting": "NCI-H520; first compound 0.8 µM", "result": 0.183}, {"measurement": "relative viability", "setting": "NCI-H520; first compound 2.53 µM", "result": 0.211}, {"measurement": "relative viability", "setting": "NCI-H1975; first compound 0.08 µM", "result": 0.54}, {"measurement": "relative viability", "setting": "NCI-H1975; first compound 0.253 µM", "result": 0.483}, {"measurement": "relative viability", "setting": "NCI-H1975; first compound 0.8 µM", "result": 0.618}, {"measurement": "relative viability", "setting": "NCI-H1975; first compound 2.53 µM", "result": 0.508}, {"measurement": "relative viability", "setting": "NCI-H1395; first compound 0.08 µM", "result": 0.644}, {"measurement": "relative viability", "setting": "NCI-H1395; first compound 0.253 µM", "result": 0.575}, {"measurement": "relative viability", "setting": "NCI-H1395; first compound 0.8 µM", "result": 0.569}, {"measurement": "relative viability", "setting": "NCI-H1395; first compound 2.53 µM", "result": 0.568}, {"measurement": "relative viability", "setting": "NCI-H1993; first compound 0.08 µM", "result": 0.617}, {"measurement": "relative viability", "setting": "NCI-H1993; first compound 0.253 µM", "result": 0.474}, {"measurement": "relative viability", "setting": "NCI-H1993; first compound 0.8 µM", "result": 0.469}, {"measurement": "relative viability", "setting": "NCI-H1993; first compound 2.53 µM", "result": 0.5}, {"measurement": "relative viability", "setting": "NCI-H1755; first compound 0.08 µM", "result": 0.439}, {"measurement": "relative viability", "setting": "NCI-H1755; first compound 0.253 µM", "result": 0.341}, {"measurement": "relative viability", "setting": "NCI-H1755; first compound 0.8 µM", "result": 0.458}, {"measurement": "relative viability", "setting": "NCI-H1755; first compound 2.53 µM", "result": 0.414}, {"measurement": "relative viability", "setting": "SK-MES-1; first compound 0.08 µM", "result": 0.288}, {"measurement": "relative viability", "setting": "SK-MES-1; first compound 0.253 µM", "result": 0.299}, {"measurement": "relative viability", "setting": "SK-MES-1; first compound 0.8 µM", "result": 0.338}, {"measurement": "relative viability", "setting": "SK-MES-1; first compound 2.53 µM", "result": 0.297}, {"measurement": "relative viability", "setting": "LXF-289; first compound 0.08 µM", "result": 0.565}, {"measurement": "relative viability", "setting": "LXF-289; first compound 0.253 µM", "result": 0.571}, {"measurement": "relative viability", "setting": "LXF-289; first compound 0.8 µM", "result": 0.588}, {"measurement": "relative viability", "setting": "LXF-289; first compound 2.53 µM", "result": 0.632}, {"measurement": "relative viability", "setting": "NCI-H3122; first compound 0.08 µM", "result": 0.2}, {"measurement": "relative viability", "setting": "NCI-H3122; first compound 0.253 µM", "result": 0.196}, {"measurement": "relative viability", "setting": "NCI-H3122; first compound 0.8 µM", "result": 0.184}, {"measurement": "relative viability", "setting": "NCI-H3122; first compound 2.53 µM", "result": 0.153}]}
